Assay results: PMC7403315, “Cyclic peptide FXII inhibitor provides safe anticoagulation in a thrombosis model and in artificial lungs” (Nature Communications, 2020)
“And” between values parts separate entries of the source, which are not always exact repeats. Equal entries are not always repeated. “Also recorded” adds a separate entry of the source. Residues, ends and D or L forms follow the SMILES beside them.

What was measured:
FXIIa = conditions: cited from earlier work
Mouse α-FXIIa = target: T1, Mouse α-FXIIa (Mus musculus, UniProt Q80YC5); assay: FXIIa protease inhibition assay with fluorogenic substrate Boc-Gln-Gly-Arg-AMC; assay type: biochemical; conditions: purified peptide without coumarin label; read-out: Ki mouse FXIIa
T1 construct: Mouse α-FXIIa; purchased Molecular Innovations MFXIIA
T1 sequence (Q80YC5 355-597 limits assumed): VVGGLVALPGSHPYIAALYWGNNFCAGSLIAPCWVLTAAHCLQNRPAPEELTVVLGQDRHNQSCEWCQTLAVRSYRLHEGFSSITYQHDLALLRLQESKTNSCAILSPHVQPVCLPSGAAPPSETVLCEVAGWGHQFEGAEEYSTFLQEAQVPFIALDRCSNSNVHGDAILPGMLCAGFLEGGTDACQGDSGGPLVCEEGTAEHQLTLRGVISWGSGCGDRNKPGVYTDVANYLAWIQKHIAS
T1 sequence (Q80YC5 20-354 limits assumed): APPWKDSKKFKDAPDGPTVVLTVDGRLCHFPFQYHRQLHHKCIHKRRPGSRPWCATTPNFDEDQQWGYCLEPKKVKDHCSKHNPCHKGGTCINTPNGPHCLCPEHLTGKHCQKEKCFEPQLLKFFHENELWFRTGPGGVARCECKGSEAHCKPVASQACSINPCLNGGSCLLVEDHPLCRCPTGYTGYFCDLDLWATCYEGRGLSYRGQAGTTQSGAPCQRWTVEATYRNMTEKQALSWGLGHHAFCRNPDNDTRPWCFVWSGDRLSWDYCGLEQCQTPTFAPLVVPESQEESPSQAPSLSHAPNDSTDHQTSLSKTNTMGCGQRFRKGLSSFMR
Procedure: (§1) In order to test the inhibitory activity of peptides without prior purification, we developed the following method. […] After solid-phase peptide synthesis, cleavage, and ether precipitation, the peptides were chemically cyclized and their Ki values were determined in a FXIIa activity assay using a fluorogenic substrate.
(§2) Protease inhibition assays
(§3) The inhibitory activity of peptides was determined by measuring the residual protease activity with a fluorogenic substrate. The assay was performed in buffer containing 10 mM Tris-Cl, pH […]
(§4) 1% (v/v) DMSO in a volume of 150 µl. FXIIa activity was measured with the fluorogenic substrate Boc-Gln-Gly-Arg-AMC (Bachem) at a final concentration of 50 µM. Mouse α-FXIIa (Molecular Innovations cat # MFXIIA) and human β-FXIIa (Molecular Innovations cat # HFXIIAB) were used at final concentrations of 0.4 nM. The reaction was pipetted as follows: 50 µl of bicyclic peptide in assay buffer were added to 50 µl of FXIIa in assay buffer and incubated for 10 minutes at 25°C before 50 µl of 150 µM fluorogenic substrate in assay buffer were added to measure the residual protease activity with an Infinite M200Pro fluorescence plate reader (excitation at 368 nm, emission at 467 nm; Tecan) for a period of 30 minutes with a read every minute at 25°C. The Tecan software i-control (version 1.1) was used for data analysis. Stock solutions of 1 mM bicyclic peptide were prepared by either dissolving the unpurified cyclization reaction with water or by dissolving purified and lyophilized peptide in water. The bicyclic peptides were serially diluted two-fold using assay buffer. Sigmoidal curves were fitted to the data using the following dose response equation (1), wherein x = peptide concentration, y = % protease activity, and p = Hill slope. IC50 values were derived from the fitted curve.
(§5) The inhibition constants (Ki) were calculated according to the equation of Cheng and Prusoff, Ki = IC50/(1+([S]0/Km), wherein IC50 is the functional strength of the inhibitor, [S]0 is the total substrate concentration, and Km is the Michaelis-Menten constant. […]
(§6) the substrate Boc-Gln-Gly-Arg-AMC. […]

human β-FXIIa = target: T2, human β-FXIIa (Homo sapiens, UniProt P00748); assay: as above; assay type: biochemical
T2 construct: human β-FXIIa (Molecular Innovations cat #); purchased Molecular Innovations HFXIIAB; host or cells: human blood
T2 sequence (P00748 373-615 limits assumed, other chains not shown): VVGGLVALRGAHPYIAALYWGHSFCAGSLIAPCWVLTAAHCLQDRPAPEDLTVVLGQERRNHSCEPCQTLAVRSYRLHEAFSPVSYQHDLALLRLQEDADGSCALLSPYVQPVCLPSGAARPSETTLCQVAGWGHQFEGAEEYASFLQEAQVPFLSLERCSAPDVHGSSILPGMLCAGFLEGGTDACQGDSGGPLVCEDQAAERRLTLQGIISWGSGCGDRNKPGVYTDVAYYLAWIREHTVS
Procedure: as §1, §2, §3, §4, §5, §6

[1] = Plasma stability assay (residual FXIIa inhibitory activity after plasma incubation); assay type: in vitro ADME, human; conditions: human, plasma
Procedure: Peptide (2 μl of 2 mM in H2O) was added to 398 μl of citrated human plasma (Innovative Research) to obtain a final peptide concentration of 10 μM. The mixture was incubated in a water bath at 37 °C. At different time points (0, 0.5, 1, 2, 4, 8, 12, 24, 48, and 96 h), samples of 30 μl were removed, diluted to 200 μl with aqueous buffer (10 mM Tris-HCl, pH 7.4, 150 mM NaCl, 10 mM MgCl2, 1 mM CaCl2), and incubated for 20 min at 65 °C to inactivate plasma proteases. The peptide/plasma samples were stored at −20 °C until the residual inhibitory activity of the peptides was measured in a FXIIa inhibition assay. […] IC50 values were derived from the fitted curve using an equation described in the Supplementary Methods. Residual inhibition in % was calculated using the equation IC50,0h/IC50,xh*100, wherein IC50,0h is the functional strength of the inhibitor at time point 0 and IC50,xh the functional strength of the inhibitor after one of the different plasma incubation periods mentioned above.

[2] = tested on: ferric chloride-induced thrombosis; assay: FeCl3 injury thrombosis model in mesenteric arterioles in mice; assay type: in vivo, mouse
Procedure: A model of thrombosis in mesenteric arterioles using intravital microscopy was performed according to Angelillo-Scherrer A. et al.[46] with minor modifications. C57BL/6J wild-type mice (male, 10–20 weeks old, 25–30 g, Charles River) were injected intravenously with Rhodamine 6G (100 μl, 1 mM, ACROS Organics product 41902) to fluorescently label the platelets and leucocytes. The mice were injected subcutaneously over the shoulders with FXII900 (5 or 25 mg kg^−1, 0.5 mg ml^−1 in PBS, pH = 7.4) or the negative control FXII901 (5 or 25 mg kg^−1, 0.5 mg ml^−1 in PBS, pH = 7.4), or intravenously (retro-orbital) with 200 IU kg^−1 heparin, and subsequently anesthetized with ketamine (80 mg kg^−1) and xylazine (16 mg kg^−1) via intraperitoneal injection. An abdominal midline incision was made to expose the mesenteric arterioles which were imaged by intravital microscopy using a Mikron IVM500 microscope (Mikron Instruments) coupled with a 50 W mercury lamp (HBO 50 microscope illuminator, Zeiss) attached to combined blue (exciter 455DF70, dichroic 515DRLP, and emitter 515ALP) and green (exciter 525DF45, dichroic 560DRLP, and emitter 565ALP) filter blocks. […] The blood flow, clot formation and vessel occlusion were monitored for 20 or 25 min wherein images were recorded every minute using a digital video cassette recorder (DSR-11, Sony) and analyzed using ImageJ software (version 1.52). Mice were euthanized by final bleeding and cervical dislocation. Time to clot formation and full occlusion of the blood vessel were determined as follows. Clot formation was defined as the formation of a clear aggregation with a diameter of around 10 µm or larger. Occlusion was defined as a clot covering the full diameter of the vessel. Mice showing no speckled pattern at the site of FeCl3 application were assumed to be not injured at the blood vessel and were excluded from the analysis.

[3] = tested on: hemostasis (tail bleeding); assay: Tail bleeding time and volume (tail transection); conditions: mice, 2 mm tail transection, peptides 25 mg kg^−1 SC, heparin 200 IU kg^−1 IV
Procedure: Mice (8- to 10-week-old) were anesthetized with pentobarbital (50 mg kg^−1, IP), treated with PBS (IV, retro-orbital), 200 IU kg^−1 heparin (IV, retro-orbital), 25 mg kg^−1 FXII900 (SC) or 25 mg kg^−1 FXII901 (SC), and put on a 37 °C heating pad. After 5 min, the distal tail was transected at 2 mm with a disposable surgical blade, and the diameter measured to confirm that it is > 1 mm. The tail was placed in a 50 ml falcon tube filled with phosphate-buffered saline (warmed to 37 °C) and the bleeding time was recorded. The total blood loss was determined by measuring the absorption at 540 nm.

[4] = tested on: coagulation in artificial lung; assay: Extracorporeal circulation (veno-venous ECMO, artificial lung) in rabbits
Procedure: New Zealand white rabbits of 3.2–4.2 kg (Charles River) were anesthetized via intramuscular injections of ketamine (30 mg kg^−1) and xylazine (5 mg kg^−1). One of the ear veins was catheterized via a 24G winged catheter, and the rabbits were intubated with a 3.0 endotracheal tube. The animals were kept anesthetized throughout the four-hour experiment via inhaled isoflurane (2%) and were ventilated with a peak inspiratory pressure (PIP) of < 20 cmH2O, positive end expiratory pressure of 5 mmHg, tidal volume of 4–6 ml kg^−1, and a respiratory rate of 22–60 breaths per min. Tidal volume and respiratory rate were adjusted to maintain normal arterial blood gases and the listed PIP. Phenylephrine was applied intravenously at a rate of 0.5–5 μg kg^−1 min^−1 to maintain blood pressure. For monitoring blood pressure and collecting blood samples, the rabbits’ right or left carotid arteries were cannulated using a 16-gauge angiocatheter (Becton Dickinson) and were secured with silk ties. The device and circuit were first primed with filtered CO2 and then with saline (NaCl, 0.9% [w/v]) containing solumedrol (30 mg kg^−1). At this point, rabbits of the inhibitor-treated group were injected with 2 mg kg^−1 of FXII900 as a 2 mM solution in PBS (pH 7.4) via the ear vein and the circuit was connected to the rabbits via a venous/venous ECMO configuration using a 14-gauge angiocatheter (Becton Dickinson) and a 6″ pressure tubing that was cut to length from a 24″ pressure tubing (Edwards Lifesciences) in the right and left internal jugular veins, respectively. The circuit was placed in a roller pump (Cobe), and the blood flow was set to 45 ml per min. After connecting the extracorporeal circuit, rabbits of the inhibitor-treated group were infused with 0.075 mg kg^−1 min^−1 FXII900 via the ear vein for the entire duration of the study. Rabbits treated with heparin were initially infused with 60 IU h^−1 (100 IU ml^−1) starting before connection to the circuit. The drip rate was adjusted based on the following nomogram to maintain the ACT in a range between 220 and 300 s. ACT > 320 s: decrease infusion rate by 12 IU h^−1, 320 s > ACT > 300 s: decrease infusion rate by 6 IU h^−1, 300 s > ACT > 220 s: maintain heparin infusion rate, 220 s > ACT > 200 s: increase infusion rate by 6 IU h^−1, 200 s > ACT > 180 s: increase infusion rate by 12 IU h^−1, ACT < 180 s bolus 100 U (1 ml). After four hours, the animals were euthanized by potassium chloride (2 mg kg^−1, IV). At the end of the experiment, 5 ml of heparin was run through the artificial lung while it was still connected to the rabbits.

[5] = repeat study, 20 min, heparin 200 IU kg^−1, n = 10
[6] = ECMO 4 h, FXII900 2 mg kg^−1 bolus + 0.075 mg kg^−1 min^−1, heparin to ACT 220–300 s

For NC(N)=NCCC[C@H](NC(=O)[C@H](Cc1ccccc1)NC(=O)[C@H]1CCCN1)C(=O)CCl [PCK, H-D-Pro-Phe-Arg-chloromethylketone] (HELM PEPTIDE1{[dP].F.R.[ClC[*:1]]}$$$$V2.0), the IC50 (FXIIa) is listed as 0.18 µM.
With CC(C)C[C@@H]1NC(=O)[C@H](CCC(N)=O)NC(=O)[C@H](CCCNC(=N)N)NC(=O)[C@@H]2CSCCC(=O)N3CN(CN(C3)C(=O)CCSC[C@H](NC(=O)[C@@H](CO)NC(=O)[C@H](N)CCCNC(=N)N)C(=O)N[C@@H](Cc3ccccc3)C(=O)N[C@@H](CCCNC(=N)N)C(=O)N[C@@H](CC(C)C)C(=O)N3CCC[C@H]3C(=O)N2)C(=O)CCSC[C@@H](C(=O)N[C@@H](CCCNC(=N)N)C(N)=O)NC(=O)[C@H](CCCNC(=N)N)NC1=O [FXII850] (HELM PEPTIDE1{[dR].[dS].C.F.R.L.P.C.R.Q.L.R.C.R.[am]}|CHEM1{[O=C(CC[*:1])N1CN(C(=O)CC[*:2])CN(C(=O)CC[*:3])C1]}$PEPTIDE1,CHEM1,3:R3-1:R1|PEPTIDE1,CHEM1,8:R3-1:R2|PEPTIDE1,CHEM1,13:R3-1:R3$$$V2.0) the Ki (Mouse α-FXIIa) was 0.035 µM, the “Residual activity of human FXIIa” value (human β-FXIIa; inhibitor 0.390625 nM, 0.000390625 µM) was 94.4127% and the remaining activity at 0.000390625 µM (human β-FXIIa; inhibitor 0.390625 nM, read-out: Residual activity of human FXIIa) was 97.1%. The “Residual activity of human FXIIa” value (human β-FXIIa; inhibitor 0.78125 nM, 0.00078125 µM) was 86.6748%, the remaining activity at 0.00078125 µM (human β-FXIIa; inhibitor 0.78125 nM, read-out: Residual activity of human FXIIa) was 93.2% and the “Residual activity of human FXIIa” value (human β-FXIIa; inhibitor 1.5625 nM, 0.0015625 µM) was 72.1433%. For the same compound, the remaining activity at 0.0015625 µM (human β-FXIIa; inhibitor 1.5625 nM, read-out: Residual activity of human FXIIa) was 82.9%, the “Residual activity of human FXIIa” value (human β-FXIIa; inhibitor 3.125 nM, 0.003125 µM) was 57.4159% and the remaining activity at 0.003125 µM (human β-FXIIa; inhibitor 3.125 nM, read-out: Residual activity of human FXIIa) was 73.8%. For the same compound, the “Residual activity of human FXIIa” value (human β-FXIIa; inhibitor 6.25 nM, 0.00625 µM) was 39.85%, the remaining activity at 0.00625 µM (human β-FXIIa; inhibitor 6.25 nM, read-out: Residual activity of human FXIIa) was 56.3% and the “Residual activity of human FXIIa” value (human β-FXIIa; inhibitor 12.5 nM, 0.0125 µM) was 25.3131%. For the same compound, the remaining activity at 0.0125 µM (human β-FXIIa; inhibitor 12.5 nM, read-out: Residual activity of human FXIIa) was 37.4%, the “Residual activity of human FXIIa” value (human β-FXIIa; inhibitor 50 nM, 0.05 µM) was 12.7513% and 5.338% and the “Residual activity of human FXIIa” value (human β-FXIIa; inhibitor 100 nM, 0.1 µM) was 6.402% and 0.6734%. For the same compound, the “Residual activity of human FXIIa” value (human β-FXIIa; inhibitor 200 nM, 0.2 µM) was 3.022% and 0%, the “Residual activity of human FXIIa” value (human β-FXIIa; inhibitor 400 nM, 0.4 µM) was 1.539% and 0% and the Ki (human β-FXIIa; purified peptide without coumarin label, read-out: Ki human FXIIa) was 0.005 µM. For the same compound, the half-life at 10 μM [1] was 18.5 h.
In the case of heparin, the “Clot (time to clot formation), individual mice” value ([2]; 200 U kg-1) is reported as 10 min (2×) and 15 min (3×) and 13 min, the “Occlusion (time to full occlusion), individual mice” value ([2]; 200 U kg-1) is reported as 19 min and the “mice showing blood clotting” value [2, 5] is reported as “six”. The “mice showing vessel occlusion” value [2, 5] was “one”, the bleeding time ([3]; 30 min monitored) was “bled essentially continuously throughout the monitored 30 min period; also recorded: constantly bleeding throughout the 30 min period” and the blood loss [3] was “medium to high blood loss; also recorded: either a small (3 mice) or large loss of blood (3 mice); also recorded: lost a large volume of blood”. The aPTT prolongation [4, 6] was 1.5 fold, the “activated clotting time (ACT) prolongation” value [4, 6] was 2 fold and the bleeding time prolongation ([4]; ECMO, all time points) was 2 fold. For the same compound, the “volume of the clot in relation to the device volume” value ([4]; ECMO, end of experiment) was 5% and the “bleeding time (ear incision)” value ([4]; ECMO, throughout the experiment) was 5 to 10 min.
